Where two headings read alike, the source gives them in different places.
How the values were obtained:
BRAF V600E = biological target: T1, BRAF V600E (Homo sapiens, UniProt P15056+Q96SW2, V600E); assay: BRAF V600E HiBiT Degradation Assay; format: cell-based
T1 construct: knock-in of the HiBiT tag to the endogenous BRAF V600E locus; host or cells: A375.10 (A375 clonal line, CRISPR HiBiT knock-in at the endogenous BRAF V600E locus)
Summary of the method: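 Endogenous HiBiT knock-in on BRAF V600E in A375 cells (clone A375.10); 11-point half-log series, top 10 μM, 2, 6 or 24 h at 37° C. Lytic HiBiT luminescence, background-subtracted, normalized to DMSO; 4-parameter fit gives DC50, Emax (residual protein) and IP (inflection point).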

A375-NRAS^Q61K cells = assay: CTGlo Cell Viability Assay, A375-NRAS^Q61K (A375.11) cells, 96 hours; format: cell-based, human; conditions: Homo sapiens, A375.11 (A375-NRAS^Q61K) cells; for Emax: lowest % viability achieved
Summary of the method: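 Viability as CellTiter-Glo ATP luminescence after 96 h compound exposure at 37 °C; A375.11 (BRAF V600E/NRAS Q61K) cells at 250/well, top final concentration 10 μM in half-log steps. Signal was background-corrected and set relative to DMSO controls. A 4-parameter logistic fit gave GI50 (50% crossing) and Emax.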

[1] = A375.10 cells, BRAF V600E, 2 hours, residual protein remaining, read-out: HiBiT-Degradation A375.10 BRAF 2 hours Emax
[2] = A375.10 cells, BRAF V600E, 2 hours, inflection point, read-out: HiBiT-Degradation A375.10 BRAF 2 hours IP
[3] = A375.10 cells, BRAF V600E, 2 hours, read-out: HiBiT-Degradation A375.10 BRAF 2 hours DC50

T1 sequence (P15056 whole entry V600E): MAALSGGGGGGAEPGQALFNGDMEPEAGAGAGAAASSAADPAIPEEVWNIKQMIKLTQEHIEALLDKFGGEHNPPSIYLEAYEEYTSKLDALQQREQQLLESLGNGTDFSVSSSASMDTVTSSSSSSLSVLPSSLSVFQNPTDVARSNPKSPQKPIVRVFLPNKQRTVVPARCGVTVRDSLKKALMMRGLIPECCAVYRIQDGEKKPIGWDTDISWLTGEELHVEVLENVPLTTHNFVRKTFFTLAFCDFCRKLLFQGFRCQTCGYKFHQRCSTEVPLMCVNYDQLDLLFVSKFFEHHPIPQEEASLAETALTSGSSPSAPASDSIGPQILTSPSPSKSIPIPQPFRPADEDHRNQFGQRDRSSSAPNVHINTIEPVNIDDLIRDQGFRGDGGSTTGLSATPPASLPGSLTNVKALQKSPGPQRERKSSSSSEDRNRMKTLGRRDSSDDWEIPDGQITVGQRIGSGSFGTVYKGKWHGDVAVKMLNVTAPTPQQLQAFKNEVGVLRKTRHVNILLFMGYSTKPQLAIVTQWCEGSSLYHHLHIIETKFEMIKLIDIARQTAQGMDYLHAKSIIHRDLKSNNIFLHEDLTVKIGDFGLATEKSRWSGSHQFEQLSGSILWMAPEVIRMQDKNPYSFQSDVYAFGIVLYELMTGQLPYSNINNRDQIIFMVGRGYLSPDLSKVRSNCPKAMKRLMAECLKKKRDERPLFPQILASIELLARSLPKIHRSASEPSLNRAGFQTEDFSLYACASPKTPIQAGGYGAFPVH
T1 sequence (Q96SW2 whole entry): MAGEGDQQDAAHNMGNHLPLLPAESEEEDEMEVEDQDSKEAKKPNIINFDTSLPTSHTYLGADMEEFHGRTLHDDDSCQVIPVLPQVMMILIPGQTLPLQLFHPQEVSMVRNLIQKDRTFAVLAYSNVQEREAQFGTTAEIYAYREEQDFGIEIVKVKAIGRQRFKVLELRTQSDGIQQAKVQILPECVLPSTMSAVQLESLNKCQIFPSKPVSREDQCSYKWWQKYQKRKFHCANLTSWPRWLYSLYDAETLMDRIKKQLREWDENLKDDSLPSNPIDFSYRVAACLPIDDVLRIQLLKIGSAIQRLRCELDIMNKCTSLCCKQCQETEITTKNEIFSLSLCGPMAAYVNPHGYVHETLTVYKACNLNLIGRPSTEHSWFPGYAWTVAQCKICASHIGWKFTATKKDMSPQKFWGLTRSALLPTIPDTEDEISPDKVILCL
T1 sequence (Q16531 whole entry partner): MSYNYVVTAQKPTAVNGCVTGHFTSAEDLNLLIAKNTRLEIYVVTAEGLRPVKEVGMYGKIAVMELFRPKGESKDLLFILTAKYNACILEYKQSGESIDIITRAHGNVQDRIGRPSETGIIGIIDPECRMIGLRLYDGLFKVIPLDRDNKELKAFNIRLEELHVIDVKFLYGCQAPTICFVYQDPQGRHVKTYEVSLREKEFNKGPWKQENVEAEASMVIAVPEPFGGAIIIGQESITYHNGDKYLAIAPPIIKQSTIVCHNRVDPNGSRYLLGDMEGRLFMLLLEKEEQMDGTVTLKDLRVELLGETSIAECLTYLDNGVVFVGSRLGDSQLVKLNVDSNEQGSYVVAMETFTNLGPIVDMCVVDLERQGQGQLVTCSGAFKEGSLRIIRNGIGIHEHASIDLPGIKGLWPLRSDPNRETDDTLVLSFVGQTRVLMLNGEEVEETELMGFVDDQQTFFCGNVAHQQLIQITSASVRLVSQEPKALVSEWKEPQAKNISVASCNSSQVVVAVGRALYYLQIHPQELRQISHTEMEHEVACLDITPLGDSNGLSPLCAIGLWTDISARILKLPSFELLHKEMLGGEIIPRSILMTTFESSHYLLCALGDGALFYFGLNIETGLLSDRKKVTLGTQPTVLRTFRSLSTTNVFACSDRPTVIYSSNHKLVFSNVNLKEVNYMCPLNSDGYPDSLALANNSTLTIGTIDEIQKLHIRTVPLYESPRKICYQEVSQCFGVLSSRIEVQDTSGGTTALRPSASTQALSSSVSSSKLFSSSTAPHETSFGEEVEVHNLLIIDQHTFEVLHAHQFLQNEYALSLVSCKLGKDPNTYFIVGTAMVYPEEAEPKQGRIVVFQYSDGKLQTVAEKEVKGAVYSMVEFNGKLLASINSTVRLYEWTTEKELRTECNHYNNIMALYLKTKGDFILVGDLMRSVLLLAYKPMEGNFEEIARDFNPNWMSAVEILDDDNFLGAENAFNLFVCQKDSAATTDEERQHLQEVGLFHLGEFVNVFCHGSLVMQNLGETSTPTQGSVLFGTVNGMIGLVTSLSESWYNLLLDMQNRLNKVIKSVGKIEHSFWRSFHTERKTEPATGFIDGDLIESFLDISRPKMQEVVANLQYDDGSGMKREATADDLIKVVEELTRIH

Compound	Emax (BRAF V600E; [1]) [%]	DC50 (BRAF V600E; read-out: HiBiT-Degradation A375.10 BRAF 2 hours DC50, A375.10 cells, BRAF V600E, 2 hours) [µM]	DC50 (BRAF V600E; read-out: HiBiT-Degradation A375.10 BRAF 2 hours IP, A375.10 cells, BRAF V600E, 2 hours, inflection point) [µM]	GI50 (A375-NRAS^Q61K cells; 96 h) [µM]	Emax (A375-NRAS^Q61K cells; 96 h) [%]	DC50 (BRAF V600E; [2]) [µM]	DC50 (BRAF V600E; [3]) [µM]	Emax (BRAF V600E; read-out: HiBiT-Degradation A375.10 BRAF 2 hours Emax) [%]	GI50 (A375-NRAS^Q61K cells) [µM]	Emax (A375-NRAS^Q61K cells) [%]	Emax (BRAF V600E; read-out: HiBiT-Degradation A375.10 BRAF 2 hours Emax, A375.10 cells, BRAF V600E, 2 hours, residual protein remaining) [%]
CCN(C)S(=O)(=O)Nc1ccc(F)c(Oc2ccc3ncn([C@H]4COC5(CCN(C6CC7(C6)CN(c6ccc(NC8CCC(=O)NC8=O)cc6F)C7)CC5)C4)c(=O)c3c2)c1F (stereo partly drawn) [Compound 193, (3R)-8-[2-[4-[(2,6-dioxo-3-piperidyl)amino]-2-fluoro-phenyl]-2-azaspiro[3.3]heptan-6-yl]-3-[6-[3-[[ethyl(methyl)sulfamoyl]amino]-2,6-difluoro-phenoxy]-4-oxo-quinazolin-3-yl]-1-oxa-8-azaspiro[4.5]decane]	50 to 90	> 10	< 1	1 to 10	50 to 90	–	–	–	–	–	–
CCN(C)S(=O)(=O)Nc1ccc(F)c(Oc2ccc3ncn([C@H]4COC5(CCN(C6C7COCC6CC(c6ccc(NC8CCC(=O)NC8=O)cc6F)C7)CC5)C4)c(=O)c3c2)c1C#N (stereo partly drawn) [Compound 194, (3R)-3-[6-[2-cyano-3-[[ethyl(methyl)sulfamoyl]amino]-6-fluoro-phenoxy]-4-oxo-quinazolin-3-yl]-8-[7-[4-[(2,6-dioxo-3-piperidyl)amino]-2-fluoro-phenyl]-3-oxabicyclo[3.3.1]nonan-9-yl]-1-oxa-8-azaspiro[4.5]decane]	–	–	–	–	–	< 1	> 10	50 to 90	> 10	50 to 90	–
CN(CCO)S(=O)(=O)Nc1ccc(F)c(Oc2ccc3ncn(C4CC5(CCN(C6CC7(C6)CN(c6cc8c(cc6F)c(N6CCC(=O)NC6=O)nn8C)C7)CC5)C4)c(=O)c3c2)c1F (stereo not drawn) [Compound 197, 6-[2,6-difluoro-3-[[2-hydroxyethyl(methyl)sulfamoyl]amino]phenoxy]-3-[7-[2-[3-(2,4-dioxohexahydropyrimidin-1-yl)-5-fluoro-1-methyl-indazol-6-yl]-2-azaspiro[3.3]heptan-6-yl]-7-azaspiro[3.5]nonan-2-yl]-4-oxo-quinazoline]	50 to 90	–	–	1 to 10	50 to 90	< 1	1 to 10	–	–	–	–
CCN(C)S(=O)(=O)Nc1ccc(F)c(C(=O)c2ccc3ncn([C@H]4COC5(CCN(C6CCC(c7cc8c(cc7F)c(N7CCC(=O)NC7=O)nn8C)CC6)CC5)C4)c(=O)c3c2)c1F (stereo partly drawn) [Compound 208, (3R)-8-[4-[3-(2,4-dioxohexahydropyrimidin-1-yl)-5-fluoro-1-methyl-indazol-6-yl]cyclohexyl]-3-[6-[3-[[ethyl(methyl)sulfamoyl]amino]-2,6-difluoro-benzoyl]-4-oxo-quinazolin-3-yl]-1-oxa-8-azaspiro[4.5]decane]	–	–	–	< 1	50 to 90	< 1	< 1	–	–	–	< 50
CCN(C)S(=O)(=O)Nc1ccc(F)c(Oc2ccc3ncn(C4CC5(CCN([C@H]6C[C@@H](c7cc8c(cc7F)c(N7CCC(=O)NC7=O)nn8C)C6)CC5)C4)c(=O)c3c2)c1C#N [Compound 209, 6-[2-cyano-3-[[ethyl(methyl)sulfamoyl]amino]-6-fluoro-phenoxy]-3-[7-[3-[3-(2,4-dioxohexahydropyrimidin-1-yl)-5-fluoro-1-methyl-indazol-6-yl]cyclobutyl]-7-azaspiro[3.5]nonan-2-yl]-4-oxo-quinazoline]	50 to 90	–	–	1 to 10	< 50	< 1	< 1	–	–	–	–
CCN(C)S(=O)(=O)Nc1ccc(F)c(Oc2ccc3ncn(C4CC5(CCN(C6COC7(CCN(c8cc9c(cc8F)c(N8CCC(=O)NC8=O)nn9C)CC7)C6)CC5)C4)c(=O)c3c2)c1C#N (stereo not drawn) [Compound 216]	< 50	–	–	< 1	50 to 90	< 1	< 1	–	–	–	–

Source: US20260297060A1, “COMPOUNDS FOR THE DEGRADATION OF MUTANT BRAF” (C4 THERAPEUTICS, INC., priority 2023, published 2026)
